Experimental data reported in patent US20260355332A1, “ANTIBODY-DRUG CONJUGATE, AND PREPARATION METHOD THEREFOR AND USE THEREOF” (MEDILINK THERAPEUTICS (SUZHOU) CO., LTD., priority 2022, published 2026).
“Also recorded” adds a separate entry of the source.

System: tumor cells
Test: Assay 2: inhibitory activity of bioactive molecules on tumor cells (CCK8), overall
Assay type: cell-based
Details: Example 6.2; multiple tumor cell lines
Method: Firstly, tumor cells NUCG-4, PC-9, HT29, NCI-H358, KYSE520, A431, and A549 were cultured. The bioactive molecules or fragments of the present disclosure were co-cultured with the tumor cells, and then a CCK8 reagent (Dojindo China Co., Ltd., Cat: CKO4, Lot: JJ744) was added. Readings were taken using a microplate reader (manufacturer: Molecular Devices, model: SpectraMax M2) (detection wavelength: 450 nm) to determine the activity of dehydrogenase in the mitochondria, so as to evaluate the inhibitory effects of the bioactive molecules on cell proliferation.
The in vitro cell activity was assayed as follows: Tumor cells were digested by a conventional method using trypsin, collected in a tube, counted, resuspended in the corresponding assay medium (containing 2% FBS), and added to a 96-well plate at 5000-10000 cells/well. Bioactive molecules diluted with DMSO (starting at a concentration of 10 μM, with a 3-fold dilution (12 concentration gradients)) were added to the 96-well plate at 100 μL/well, and the plate was incubated at 37° C. with 5% CO2 for 3-4 days. Subsequently, 20 μL of CCK8 reagent was added to each well, and the mixture was allowed to react for 2-6 h. Readings were then taken using a microplate reader (detection wavelength: 450 nm).

## CC[C@@]1(O)C(=O)OCc2c1cc1n(c2=O)Cc2c-1nc1cc3c(cc1c2CCCO)OCO3 [Example A1.9, (S)-7-ethyl-7-hydroxy-14-(3-hydroxypropyl)-10,13-dihydro-11H-[1,3]dioxolo[4,5-g]pyrano[3′,4′:6,7]indolizino[1,2-b]quinoline-8,11(7H)-dione]
  tumor cell-killing effect (in words): had tumor cell-killing effects; also recorded: stronger tumor-killing effect than Dxd in multiple tumor cell lines

## CC[C@@]1(O)C(=O)OCc2c1cc1n(c2=O)Cc2c-1nc1cc3c(cc1c2CCCOCNC(=O)CN)OCO3 [Example B1.14, (S)-2-amino-N-((3-(7-ethyl-7-hydroxy-8,11-dioxo-7,8,11,13-tetrahydro-10H-[1,3]dioxolo[4,5-g]pyrano[3′,4′:6,7]indolizino[1,2-b]quinolin-14-yl)propoxy)methyl)acetamide]
  tumor cell-killing effect (in words): had tumor cell-killing effects
